In test [1] the test system is Mus musculus. The test is described as follows: % Pu(IV) retained after 24 hr in whole body of mice under the effect of 30uM/kg(po, gastric intubation) of ligand administered 3 min after iv injection of Pu(IV) citrate. The test is classed as functional.
Test [2] relates to Mus musculus. Description: %Pu(IV) excreted after 24 hr in GI contents and feces under the effect of 30uM/kg(po, gastric intubation) of ligand administered 3 min after iv injection of Pu(IV) citrate. It counts as functional.
Test [3] deals with Mus musculus. The test is described as follows: Percent of Pu(IV) excreted after 24 hours in GI contents and feces under the effect of 30 umol/kg (i.p.) of ligand administered 1 hr after iv injection of Pu(IV) citrate. It counts as functional.
For test [4], the system named is Mus musculus. Description: Percent of Pu(IV) excreted after 24 hours in urine under the effect of 30 umol/kg (i.p.) of ligand administered 1 hr after iv injection of Pu(IV) citrate. It counts as functional.
The subject of test [5] is Mus musculus. Description: Percent of Pu(IV) retained after 24 hours in kidneys of mice under the effect of 30 umol/kg (i.p.) of ligand administered 1 hr after iv injection of Pu(IV) citrate. The test is classed as functional, Kidney.
Test [6] relates to Mus musculus. The test is described as follows: Percent of Pu(IV) retained after 24 hours in liver of mice under the effect of 30 umol/kg (i.p.) of ligand administered 1 hr after iv injection of Pu(IV) citrate. The test is classed as functional.
The test system of test [7] is Mus musculus. Description: Percent of Pu(IV) retained after 24 hours in skeleton of mice under the effect of 30 umol/kg (i.p.) of ligand administered 1 hr after iv injection of Pu(IV) citrate. It counts as functional.
The subject of test [8] is Mus musculus. The test is described as follows: Percent of Pu(IV) retained after 24 hours in soft tissue of mice under the effect of 30 umol/kg (i.p.) of ligand administered 1 hr after iv injection of Pu(IV) citrate. The test is classed as functional.
Test [9] concerns Mus musculus. The test is described as follows: Percent of Pu(IV) retained after 24 hours in whole body of mice under the effect of 30 umol/kg (i.p.) of ligand administered 1 hr after iv injection of Pu(IV) citrate. It counts as functional.
For test [10], the system named is Mus musculus. The test is described as follows: % Pu(IV) retained after 24 hours in liver of mice under the effect of 30uM/kg(po, gastric intubation) of ligand administered 3 min after iv injection of Pu(IV) citrate. The test is classed as functional.
Test [11] concerns Mus musculus. The test is described as follows: % Pu(IV) excreted at 0-4 hr in urine under the effect of 30uM/kg(po, gastric intubation) of ligand administered 3 min after iv injection of Pu(IV) citrate. The test is classed as functional.
Test [12] has as its system Mus musculus. The test is described as follows: % Pu(IV) retained after 24 hours in kidneys of mice under the effect of 30uM/kg(po, gastric intubation) of ligand administered 3 min after iv injection of Pu(IV) citrate. It counts as functional, Kidney.
Test [13] has as its system Mus musculus. Description: % Pu(IV) retained after 24 hours in skeleton of mice under the effect of 30uM/kg(po, gastric intubation) of ligand administered 3 min after iv injection of Pu(IV) citrate. It counts as functional.
Test [14] has as its system Mus musculus. Description: % Pu(IV) retained after 24 hours in soft tissue of mice under the effect of 30uM/kg(po, gastric intubation) of ligand administered 3 min after iv injection of Pu(IV) citrate. It counts as functional.
For test [15], the system named is Mus musculus. The test is described as follows: % Pu(IV) excreted at 4-24 hr in urine under the effect of 30uM/kg(po, gastric intubation) of ligand administered 3 min after iv injection of Pu(IV) citrate.

Consider `Cn1ccc(C(=O)NCCCCCNC(=O)c2ccn(C)c(=O)c2O)c(O)c1=O`, for which the ID with Mus musculus [1] came to 54%; in the test with Mus musculus [2], 22%; in the test with Mus musculus [3] it was 67%; with Mus musculus [4], 18%; in the test on Mus musculus [5], 0.3%; in the test on Mus musculus [6], 3.1%. For the same molecule, the ID in the test with Mus musculus [7] stood at 10%; in the test on Mus musculus [8], 1.9%; with Mus musculus [9], 16%; in the test with Mus musculus [10], 25%; with Mus musculus [11] it was 10%; with Mus musculus [12], 0.8%. Besides, the ID worked out at 24% in the test with Mus musculus [13], 3.2% in the test with Mus musculus [14] and 13% with Mus musculus [15].
For `Cn1ccc(C(=O)NCc2cc(CNC(=O)c3ccn(C)c(=O)c3O)cc(CNC(=O)c3ccn(C)c(=O)c3O)c2)c(O)c1=O`, the ID in the test with Mus musculus [1] stood at 82%; in the test with Mus musculus [2], 5.2%; in the test with Mus musculus [3] it was 70%; in the test with Mus musculus [4] it was 8%; with Mus musculus [5], 0.9%; with Mus musculus [6], 6.1%. The ID with Mus musculus [7] came to 12%; in the test with Mus musculus [8], 3%; in the test on Mus musculus [9], 22%; in the test with Mus musculus [10] it was 40%; with Mus musculus [11] it was 6.4%; in the test on Mus musculus [12], 1.2%. Besides, the values for the ID in the test on Mus musculus [13], in the test on Mus musculus [14] and in the test with Mus musculus [15] were 34%, 7.5% and 6%, respectively.
For `Cn1ccc(C(=O)NCCCCCCNC(=O)c2ccn(C)c(=O)c2O)c(O)c1=O`, the ID in the test with Mus musculus [1] is 76%; in the test with Mus musculus [2], 9.8%; in the test on Mus musculus [3] it was 63%; in the test on Mus musculus [4] it was 14%; in the test with Mus musculus [5], 0.5%; in the test with Mus musculus [6] it was 6.5%. The ID in the test on Mus musculus [7] came out at 12%; in the test on Mus musculus [8] it was 3.7%; with Mus musculus [9] it was 23%; with Mus musculus [10], 44%; in the test with Mus musculus [11] it was 7.3%; in the test with Mus musculus [12], 0.6%. For the same molecule, the ID in the test with Mus musculus [13] is 25%; in the test on Mus musculus [14], 6.2%; with Mus musculus [15], 6.9%.
On to `Cn1ccc(C(=O)NCCOCCNC(=O)c2ccn(C)c(=O)c2O)c(O)c1=O`, for which the ID in the test with Mus musculus [1] was determined as 34%; in the test on Mus musculus [2] it was 46%; in the test on Mus musculus [3], 56%; in the test with Mus musculus [4], 28%; in the test with Mus musculus [5] it was 0.3%; with Mus musculus [6], 2.7%. Moreover, the ID in the test with Mus musculus [7] is 11%; with Mus musculus [8] it was 1.7%; in the test with Mus musculus [9] it was 16%; in the test on Mus musculus [10] it was 11%; in the test on Mus musculus [11], 14%; in the test with Mus musculus [12], 0.8%. Also, the results for the ID in the test with Mus musculus [13], with Mus musculus [14] and in the test on Mus musculus [15] were 18%, 2.9% and 7.8%, respectively.
